Values belong to the compound of their own block, whether it stands above or below them. Activity calls are given as the source filed them.
Tests used:
Mu-type opioid receptor [1] = target: T1, Mu-type opioid receptor (Homo sapiens, UniProt P35372); assay: MOR agonists by imaging, SAR follow-up, image-based (AID 2352); assay type: functional
[2] = target: T2, Delta-type opioid receptor (Homo sapiens, UniProt P41143); assay: DOR agonists, SAR follow-up, image-based (AID 2370); assay type: functional
[3] = target: T3, Kappa-type opioid receptor (Homo sapiens, UniProt P41145); assay: KOR antagonists by imaging, SAR follow-up, image-based (AID 2348); assay type: functional
Mu-type opioid receptor [4] = target: T1, Mu-type opioid receptor; assay: MOR antagonists, SAR follow-up, image-based (AID 2420); assay type: functional;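 further: compounds added before stimulation of receptor with agonist DAMGO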
[5] = target: T3, Kappa-type opioid receptor; assay: KOR agonist analogs, imaging readout, SAR follow-up, image-based (AID 2359); assay type: functional
[6] = target: T2, Delta-type opioid receptor; assay: DOR antagonists, SAR follow-up, image-based (AID 2357); assay type: functional
[7] = target: T3, Kappa-type opioid receptor; assay: kappa opioid receptor blockers, cell-based, luminescence, beta-arrestin, SAR follow-up (AID 2285); assay type: functional
Exodeoxyribonuclease V = Exodeoxyribonuclease V (Escherichia coli (strain K12), UniProt P04993+P07648+P08394); assay: E. coli RecBCD inhibitors, dose response, counter-screen for AddAB inhibitor project, absorbance, V66 E. coli, mutant T4 phage (AID 492957); assay type: functional, cell-based, Escherichia coli str. K-12 substr. MG1655
Caspase-3 = target: T4, Caspase-3 (Homo sapiens, UniProt P42574); assay type: functional;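 further: Dose-response selectivity test against caspase-3 for candidate inhibitors of sentrin-specific proteases (SENPs)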
T4 sequence (P42574 whole entry): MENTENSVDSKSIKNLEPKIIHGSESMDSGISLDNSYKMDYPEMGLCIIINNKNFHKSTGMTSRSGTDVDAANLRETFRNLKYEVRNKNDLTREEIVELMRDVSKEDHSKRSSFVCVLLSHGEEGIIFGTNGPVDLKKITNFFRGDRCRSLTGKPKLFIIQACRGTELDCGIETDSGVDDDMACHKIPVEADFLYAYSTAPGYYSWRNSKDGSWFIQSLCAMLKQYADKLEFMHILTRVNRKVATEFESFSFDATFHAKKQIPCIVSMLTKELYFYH

[8] = target: T5, Sentrin-specific protease 7 (Homo sapiens, UniProt Q9BQF6); assay type: functional;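 further: Luminescence-based dose-response confirmation of ultra-high-throughput screening hits, measuring inhibition of SENP7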
T5 sequence (Q9BQF6 whole entry): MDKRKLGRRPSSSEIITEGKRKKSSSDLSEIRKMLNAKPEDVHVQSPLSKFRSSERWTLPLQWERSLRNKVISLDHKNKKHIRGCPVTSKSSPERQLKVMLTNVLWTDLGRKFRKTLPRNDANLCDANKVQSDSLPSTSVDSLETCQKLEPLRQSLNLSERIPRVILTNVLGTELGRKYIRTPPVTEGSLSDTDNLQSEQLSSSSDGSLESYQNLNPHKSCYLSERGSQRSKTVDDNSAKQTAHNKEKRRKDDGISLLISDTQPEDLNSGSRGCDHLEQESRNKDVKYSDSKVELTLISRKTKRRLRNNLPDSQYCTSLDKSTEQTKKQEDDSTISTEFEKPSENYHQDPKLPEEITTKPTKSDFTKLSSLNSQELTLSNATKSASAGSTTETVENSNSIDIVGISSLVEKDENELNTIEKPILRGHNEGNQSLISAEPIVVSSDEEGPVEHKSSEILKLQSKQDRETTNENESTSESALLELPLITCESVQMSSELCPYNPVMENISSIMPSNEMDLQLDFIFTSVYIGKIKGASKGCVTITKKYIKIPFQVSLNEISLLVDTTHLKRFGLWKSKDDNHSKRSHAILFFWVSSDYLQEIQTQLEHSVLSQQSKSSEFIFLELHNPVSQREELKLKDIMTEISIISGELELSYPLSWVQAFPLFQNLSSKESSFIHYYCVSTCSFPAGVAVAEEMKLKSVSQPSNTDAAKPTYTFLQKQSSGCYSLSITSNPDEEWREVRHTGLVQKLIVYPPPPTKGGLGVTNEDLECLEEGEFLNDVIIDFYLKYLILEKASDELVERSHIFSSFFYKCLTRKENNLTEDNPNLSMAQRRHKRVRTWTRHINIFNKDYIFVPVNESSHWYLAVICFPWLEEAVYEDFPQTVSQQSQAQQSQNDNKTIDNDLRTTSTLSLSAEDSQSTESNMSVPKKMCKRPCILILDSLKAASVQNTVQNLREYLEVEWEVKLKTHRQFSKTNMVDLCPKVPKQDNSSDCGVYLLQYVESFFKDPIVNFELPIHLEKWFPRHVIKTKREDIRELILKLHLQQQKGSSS

[9] = target: T6, Sentrin-specific protease 6 (Homo sapiens, UniProt Q9GZR1); assay type: functional;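 further: Luminescence-based dose-response confirmatory assay of SENP6 inhibition, following up an ultra-high-throughput screen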
T6 sequence (Q9GZR1 whole entry): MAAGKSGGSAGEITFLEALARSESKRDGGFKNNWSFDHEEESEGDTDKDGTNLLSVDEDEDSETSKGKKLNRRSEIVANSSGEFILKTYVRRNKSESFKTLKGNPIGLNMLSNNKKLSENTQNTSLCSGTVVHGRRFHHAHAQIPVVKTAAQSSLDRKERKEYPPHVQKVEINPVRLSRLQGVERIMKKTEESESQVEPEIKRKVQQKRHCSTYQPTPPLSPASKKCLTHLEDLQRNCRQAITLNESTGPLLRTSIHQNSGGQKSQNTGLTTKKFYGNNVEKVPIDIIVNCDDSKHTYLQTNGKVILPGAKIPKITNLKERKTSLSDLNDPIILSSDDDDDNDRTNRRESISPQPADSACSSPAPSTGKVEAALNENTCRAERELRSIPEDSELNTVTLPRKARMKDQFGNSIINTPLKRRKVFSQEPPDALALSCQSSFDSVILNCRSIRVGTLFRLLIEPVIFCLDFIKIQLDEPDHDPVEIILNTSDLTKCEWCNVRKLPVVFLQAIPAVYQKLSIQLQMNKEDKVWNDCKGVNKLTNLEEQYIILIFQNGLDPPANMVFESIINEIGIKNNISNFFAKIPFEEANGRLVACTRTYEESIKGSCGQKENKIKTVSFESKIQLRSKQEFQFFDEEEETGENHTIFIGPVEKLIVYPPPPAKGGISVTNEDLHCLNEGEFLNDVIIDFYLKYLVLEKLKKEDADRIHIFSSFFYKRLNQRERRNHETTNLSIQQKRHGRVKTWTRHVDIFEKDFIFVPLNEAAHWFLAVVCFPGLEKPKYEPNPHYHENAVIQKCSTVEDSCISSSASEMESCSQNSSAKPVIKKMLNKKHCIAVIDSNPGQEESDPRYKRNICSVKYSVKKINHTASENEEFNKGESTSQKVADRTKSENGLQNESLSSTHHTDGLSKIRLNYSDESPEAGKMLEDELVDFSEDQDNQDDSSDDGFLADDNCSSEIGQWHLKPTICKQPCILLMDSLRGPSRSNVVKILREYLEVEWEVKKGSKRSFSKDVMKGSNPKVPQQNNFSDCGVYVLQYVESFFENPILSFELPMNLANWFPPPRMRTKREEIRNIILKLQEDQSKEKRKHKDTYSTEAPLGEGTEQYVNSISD

[10] = target: T7, Sentrin-specific protease 8 (Homo sapiens, UniProt Q96LD8); assay type: functional;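 further: luminescence read-out of SENP8 inhibition, dose-response confirmation following an ultra-high-throughput screen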
T7 sequence (Q96LD8 whole entry): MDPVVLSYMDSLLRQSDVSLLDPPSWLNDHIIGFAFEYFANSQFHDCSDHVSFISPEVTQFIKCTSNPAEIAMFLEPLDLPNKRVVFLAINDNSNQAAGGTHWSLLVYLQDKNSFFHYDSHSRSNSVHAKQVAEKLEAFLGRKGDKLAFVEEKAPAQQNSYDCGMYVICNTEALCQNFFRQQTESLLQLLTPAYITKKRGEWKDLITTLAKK

[11] = Counterscreen for AddAB inhibitors: absorbance-based bacterial cell-based high throughput dose response assay for inhibitors of bacterial viability. [Related pubchem assays (depositor defined):AID435030, AID449728, AID449731, AID488942, AID488955, AID488956]; assay type: functional
[12] = target: Mitochondrial peptide methionine sulfoxide reductase (Bos taurus, UniProt P54149); assay: Absorbance-based biochemical high throughput dose response assay for activators of Methionine sulfoxide reductase A (MsrA).; assay type: functional
[13] = HIV-1 Env-mediated cell fusion inhibitors, dose response, CCR5-tropic Env (AID 2279); assay type: functional
[14] = target: G-protein coupled receptor 55 (Homo sapiens, UniProt Q9Y2T6); assay: GPR55 antagonists, SAR follow-up, counter-screen for GPR35 antagonist project, imaging, image-based (AID 2397); assay type: functional
[15] = target: T8, Probable nicotinate-nucleotide adenylyltransferase (Staphylococcus aureus (strain N315), UniProt P65502); assay type: functional, Staphylococcus aureus subsp. aureus N315;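 on IC50 Mean: confirmatory dose-response retesting of NadD inhibitor hits first found in an ultra-high-throughput screen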
[16] = target: T8, Probable nicotinate-nucleotide adenylyltransferase; assay type: functional, Staphylococcus aureus subsp. aureus N315; details: read-out: IC50_Mean
Genome polyprotein = Genome polyprotein (Hepatitis C virus, UniProt Q2Q167); assay: HCV core protein dimerization inhibitors, dose response, biochemical, TR-FRET (AID 2159); design: species or system Hepacivirus hominis;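 further: blocks dimerization of HCV core protein measured by TR-FRET between tagged core106 pairs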
[17] = growth suppression of PTEN-null colon cells, dose response, cell-based, HCT116 PTEN knockout (AID 1047); assay type: functional;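 further: HCT116 colon tumor cells with PTEN knocked out; cells exposed to compound for 60 hours before readout; potency for loss of cell viability measured by luminescence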
[18] = growth suppression of beta-catenin-knockout colon cells, dose response, cell-based, HCT116, human colon tumor (AID 1045); assay type: functional;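 further: HCT116 colon tumor cells with beta catenin knocked out; cells exposed to compound for 60 hours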
[19] = growth induction of Burl-1 ts yeast mutant, dose response, counter-screen for SUMOylation pathway inhibitor project, whole organism, S. cerevisiae, luminescence (AID 463199); assay type: functional
cells [20] = assay type: functional, cell-based
cells [21] = assay type: functional, cell-based; remark: listed apart in the source
[22] = target: Lysine-specific demethylase 4C (Homo sapiens, UniProt Q9H3R0); assay: GASC-1 (JMJD2C) histone demethylase inhibitors, dose response, biochemical, DELFIA europium, cherry-picked samples (AID 488835); assay type: functional
HEK293 = assay: inhibitors of LMP1-driven NF-kB reporter, dose response, cell-based, HEK293, luciferase, cherry-pick (AID 588343); assay type: functional; details: Homo sapiens
INS1 = assay: beta cell apoptosis inhibitors, cytokine rescue, dose response, luminescence, retest (AID 449756); assay type: functional, cell-based; details: Rattus norvegicus;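 further: cell death triggered by IL-1 beta plus TNF-alpha plus IFN-gamma mixture; protective hits raise ATP signal compared with cytokine alone wells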

T3 sequence (P41145 whole entry): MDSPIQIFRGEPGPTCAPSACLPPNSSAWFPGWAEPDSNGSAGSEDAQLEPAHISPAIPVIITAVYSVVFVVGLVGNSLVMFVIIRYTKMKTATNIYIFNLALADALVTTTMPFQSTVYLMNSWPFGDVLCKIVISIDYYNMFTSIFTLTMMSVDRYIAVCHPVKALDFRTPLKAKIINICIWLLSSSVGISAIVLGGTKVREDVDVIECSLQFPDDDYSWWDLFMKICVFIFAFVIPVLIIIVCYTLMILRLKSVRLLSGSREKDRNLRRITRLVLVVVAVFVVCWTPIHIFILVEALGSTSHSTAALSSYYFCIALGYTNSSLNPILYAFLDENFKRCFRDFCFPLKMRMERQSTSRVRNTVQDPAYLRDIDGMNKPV
T2 sequence (P41143 whole entry): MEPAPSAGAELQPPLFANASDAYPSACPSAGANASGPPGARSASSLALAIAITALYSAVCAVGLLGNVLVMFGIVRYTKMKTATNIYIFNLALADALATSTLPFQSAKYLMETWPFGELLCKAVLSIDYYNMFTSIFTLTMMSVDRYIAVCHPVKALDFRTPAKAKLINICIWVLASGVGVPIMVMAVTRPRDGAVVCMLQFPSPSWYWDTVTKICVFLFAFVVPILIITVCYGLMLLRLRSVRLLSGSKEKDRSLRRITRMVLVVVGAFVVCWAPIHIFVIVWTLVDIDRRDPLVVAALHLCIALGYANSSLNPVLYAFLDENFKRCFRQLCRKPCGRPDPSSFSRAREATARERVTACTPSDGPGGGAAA
T1 sequence (P35372 whole entry): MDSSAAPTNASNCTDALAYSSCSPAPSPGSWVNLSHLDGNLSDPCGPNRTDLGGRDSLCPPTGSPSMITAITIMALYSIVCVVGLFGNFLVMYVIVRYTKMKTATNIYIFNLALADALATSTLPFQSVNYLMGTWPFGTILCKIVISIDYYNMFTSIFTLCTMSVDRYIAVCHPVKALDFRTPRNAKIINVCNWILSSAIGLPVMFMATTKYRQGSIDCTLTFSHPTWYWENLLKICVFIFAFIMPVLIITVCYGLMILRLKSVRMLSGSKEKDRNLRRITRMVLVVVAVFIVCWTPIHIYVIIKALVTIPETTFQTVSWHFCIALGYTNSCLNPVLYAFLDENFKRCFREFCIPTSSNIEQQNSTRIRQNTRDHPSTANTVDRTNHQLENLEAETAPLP
Chain of G-protein coupled receptor 55 (Q9Y2T6 whole entry): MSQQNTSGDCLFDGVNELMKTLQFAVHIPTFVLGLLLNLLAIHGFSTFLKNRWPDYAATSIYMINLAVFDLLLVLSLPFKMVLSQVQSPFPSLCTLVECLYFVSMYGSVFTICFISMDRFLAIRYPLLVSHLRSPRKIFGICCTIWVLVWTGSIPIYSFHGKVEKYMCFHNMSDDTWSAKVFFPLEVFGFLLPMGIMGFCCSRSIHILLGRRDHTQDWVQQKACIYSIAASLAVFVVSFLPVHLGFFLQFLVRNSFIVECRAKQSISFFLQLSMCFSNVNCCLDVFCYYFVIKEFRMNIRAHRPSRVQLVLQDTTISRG
Chain of Exodeoxyribonuclease V (P04993 whole entry): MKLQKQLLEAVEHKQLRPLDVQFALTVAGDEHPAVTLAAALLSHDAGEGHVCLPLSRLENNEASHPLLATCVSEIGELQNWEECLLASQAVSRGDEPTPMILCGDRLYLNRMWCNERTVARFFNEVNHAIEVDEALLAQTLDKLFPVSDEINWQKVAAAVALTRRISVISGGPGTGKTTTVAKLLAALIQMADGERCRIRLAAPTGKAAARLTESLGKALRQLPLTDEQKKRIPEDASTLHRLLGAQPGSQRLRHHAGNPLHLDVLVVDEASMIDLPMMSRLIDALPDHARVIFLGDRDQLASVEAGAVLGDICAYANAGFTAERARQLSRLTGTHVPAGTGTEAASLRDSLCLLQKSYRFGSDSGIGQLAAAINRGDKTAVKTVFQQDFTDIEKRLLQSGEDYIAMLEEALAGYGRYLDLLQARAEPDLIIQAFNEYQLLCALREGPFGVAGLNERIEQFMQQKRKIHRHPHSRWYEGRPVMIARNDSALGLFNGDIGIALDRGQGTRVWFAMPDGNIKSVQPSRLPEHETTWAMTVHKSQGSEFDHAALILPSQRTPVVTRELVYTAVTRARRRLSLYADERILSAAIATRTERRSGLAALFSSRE
Chain of Exodeoxyribonuclease V (P07648 whole entry): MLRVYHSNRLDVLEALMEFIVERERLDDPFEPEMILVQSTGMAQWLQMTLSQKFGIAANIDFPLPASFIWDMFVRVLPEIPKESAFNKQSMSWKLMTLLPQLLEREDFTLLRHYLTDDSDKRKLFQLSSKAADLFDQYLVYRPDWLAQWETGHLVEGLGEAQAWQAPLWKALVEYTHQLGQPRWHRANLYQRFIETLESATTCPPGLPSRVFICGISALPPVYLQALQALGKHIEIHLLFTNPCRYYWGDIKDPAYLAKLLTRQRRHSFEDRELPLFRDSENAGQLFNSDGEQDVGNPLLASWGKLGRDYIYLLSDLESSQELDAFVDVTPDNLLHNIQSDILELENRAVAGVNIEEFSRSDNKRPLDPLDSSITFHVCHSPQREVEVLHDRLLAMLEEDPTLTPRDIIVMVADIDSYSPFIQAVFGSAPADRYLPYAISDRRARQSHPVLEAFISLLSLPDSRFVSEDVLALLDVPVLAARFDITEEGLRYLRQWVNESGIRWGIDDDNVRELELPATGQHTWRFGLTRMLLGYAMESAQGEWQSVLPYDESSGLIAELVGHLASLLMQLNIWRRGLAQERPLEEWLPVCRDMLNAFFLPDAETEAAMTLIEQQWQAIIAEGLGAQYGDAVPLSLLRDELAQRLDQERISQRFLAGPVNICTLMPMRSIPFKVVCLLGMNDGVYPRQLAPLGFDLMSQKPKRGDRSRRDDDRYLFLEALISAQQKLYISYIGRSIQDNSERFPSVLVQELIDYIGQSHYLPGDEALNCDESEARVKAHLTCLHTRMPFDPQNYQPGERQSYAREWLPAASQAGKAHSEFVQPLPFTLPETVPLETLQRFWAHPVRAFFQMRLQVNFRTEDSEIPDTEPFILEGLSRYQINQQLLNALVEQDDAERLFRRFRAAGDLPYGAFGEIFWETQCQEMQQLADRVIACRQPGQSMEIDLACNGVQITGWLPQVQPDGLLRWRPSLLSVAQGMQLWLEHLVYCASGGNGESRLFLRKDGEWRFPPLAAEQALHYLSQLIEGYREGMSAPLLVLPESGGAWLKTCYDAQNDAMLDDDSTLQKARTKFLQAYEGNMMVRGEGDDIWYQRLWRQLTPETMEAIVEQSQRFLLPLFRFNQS
Chain of Exodeoxyribonuclease V (P08394 whole entry): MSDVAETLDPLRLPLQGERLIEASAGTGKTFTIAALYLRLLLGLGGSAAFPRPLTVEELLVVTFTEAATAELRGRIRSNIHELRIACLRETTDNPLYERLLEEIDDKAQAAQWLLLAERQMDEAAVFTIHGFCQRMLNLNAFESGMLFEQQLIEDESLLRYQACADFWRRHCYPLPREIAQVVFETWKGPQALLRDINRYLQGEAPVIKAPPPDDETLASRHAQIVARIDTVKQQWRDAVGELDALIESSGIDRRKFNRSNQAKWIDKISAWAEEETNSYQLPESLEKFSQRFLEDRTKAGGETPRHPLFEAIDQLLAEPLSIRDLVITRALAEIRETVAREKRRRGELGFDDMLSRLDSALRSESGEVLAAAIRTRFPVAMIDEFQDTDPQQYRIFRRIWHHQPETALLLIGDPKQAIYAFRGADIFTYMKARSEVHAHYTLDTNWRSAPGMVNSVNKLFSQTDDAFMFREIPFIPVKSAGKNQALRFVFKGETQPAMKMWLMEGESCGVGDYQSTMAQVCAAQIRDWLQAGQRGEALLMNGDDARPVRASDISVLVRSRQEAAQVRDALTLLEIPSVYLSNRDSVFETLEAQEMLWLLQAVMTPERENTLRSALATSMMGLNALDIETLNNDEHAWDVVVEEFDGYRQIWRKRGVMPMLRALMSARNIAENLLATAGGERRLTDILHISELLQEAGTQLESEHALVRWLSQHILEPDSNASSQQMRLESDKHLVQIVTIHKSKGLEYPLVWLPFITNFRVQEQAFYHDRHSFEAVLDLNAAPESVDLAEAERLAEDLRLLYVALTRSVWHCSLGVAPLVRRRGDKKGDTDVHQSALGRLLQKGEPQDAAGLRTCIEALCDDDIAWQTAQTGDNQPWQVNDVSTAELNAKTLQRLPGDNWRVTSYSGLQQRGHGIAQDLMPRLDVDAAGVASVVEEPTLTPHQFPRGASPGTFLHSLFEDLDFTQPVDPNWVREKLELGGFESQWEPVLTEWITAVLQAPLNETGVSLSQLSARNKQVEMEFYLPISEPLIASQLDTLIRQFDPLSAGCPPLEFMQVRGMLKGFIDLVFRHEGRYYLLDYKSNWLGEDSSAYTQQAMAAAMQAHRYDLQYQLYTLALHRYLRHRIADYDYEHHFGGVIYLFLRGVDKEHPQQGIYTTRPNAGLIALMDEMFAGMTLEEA
Chain of Genome polyprotein (Q2Q167 whole entry): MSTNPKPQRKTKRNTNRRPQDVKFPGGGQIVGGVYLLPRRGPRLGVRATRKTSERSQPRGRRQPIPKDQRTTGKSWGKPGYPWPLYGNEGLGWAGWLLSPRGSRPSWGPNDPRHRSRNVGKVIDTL
Chain of Mitochondrial peptide methionine sulfoxide reductase (P54149 whole entry, the tested form may be a part): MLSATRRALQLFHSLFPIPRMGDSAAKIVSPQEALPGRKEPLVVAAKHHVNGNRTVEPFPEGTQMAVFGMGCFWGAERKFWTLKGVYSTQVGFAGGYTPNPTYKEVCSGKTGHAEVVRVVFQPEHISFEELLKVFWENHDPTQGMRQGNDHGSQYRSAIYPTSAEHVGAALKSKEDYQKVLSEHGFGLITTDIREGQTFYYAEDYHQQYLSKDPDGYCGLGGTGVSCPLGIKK

EC50 (Mu-type opioid receptor [1]): > 32 µM (inactive)
EC50 [2]: > 32 µM (inactive)
IC50 [3]: > 32 µM (inactive)
IC50 (Mu-type opioid receptor [4]): > 32 µM (inactive)
EC50 [5]: > 32 µM (inactive)
IC50 [6]: > 32 µM (inactive)
IC50 [7]: > 10 µM (inactive)
Structure (SMILES): CC(=O)c1ccc(S(=O)(=O)NCc2ccc(C(=O)N(C)CC(=O)Nc3cccc(F)c3)cc2)cc1

Structure (SMILES): O=C(COC(=O)c1ccc([N+](=O)[O-])s1)c1ccc[nH]1
IC50 (Exodeoxyribonuclease V): > 119 µM (inactive)
IC50 (Caspase-3): 10.2 µM (active)
IC50 [8]: 18.4 µM (active)
IC50 [9]: 6.52 µM (active)
IC50 [10]: 5.37 µM (active)
IC50 [11]: 104 µM (inactive)
EC50 [12]: 15.8 µM (inactive)

Structure (SMILES): CCC(Sc1nc2ccsc2c(=O)n1Cc1ccc(C(=O)O)cc1)C(=O)Nc1ccc(C)c(Cl)c1 (configuration not stated)
IC50 [13]: 47.7 µM (active)
IC50 [14]: 14.9 µM (inactive)
IC50 [15]: 6.61 µM (active)
IC50 [16]: 38.6 µM (active)

Structure (SMILES): O=C(N/N=C/C(Br)=C/c1ccccc1)c1[nH]nc2c1CCC2
IC50 (Genome polyprotein): > 49.8 µM (not active)
EC50 [17]: < 59 nM (active)
EC50 [18]: < 59 nM (active)
AC50 [19]: 120 µM (active)

Structure (SMILES): COc1cccc(/C=N/Nc2nc3ccccc3[nH]2)c1O
EC50 (cells [20]): > 350 µM (not active)
EC50 (cells [21]): 26.6 µM (active)
AC50 [22]: 8.63 µM (active)
AC50 (HEK293): 3.34 µM (active)
AC50 (INS1): 2.22 µM (active)
